Reference: paper PMC6691761, “Potential multifunctional agents with anti-hepatoma and anti-inflammation properties by inhibiting NF-кB activation” (Journal of Enzyme Inhibition and Medicinal Chemistry, 2019)

Assays:
Assay type in all cases: cell-based
[1] = system: human breast cancer cells (MCF-7); assay: Cytotoxicity, MTT assay, MCF-7; details: for IC50: MTT, 24 h; for MCF-7 SI (selectivity index): quotient of IC50 towards LO2 cells
Source text: (§1) Compounds 83–102 were screened against human neoplastic cell lines, such as human breast cancer cells (MCF-7), human colon cancer cells (HCT116), human lung carcinoma cells (A549), human gastric adenocarcinoma cells (SGC7901), human liver hepatocellular carcinoma cell line (HepG2), human cervical carcinoma cells (HeLa), human acute mononuclear granulocyte leukaemia (THP-1), and human normal hepatic cell line (LO2) using modified MTT assay. All the cells were obtained from the American Type Culture Collection (ATCC, Manassas, VA). The cells were cultured in DMEM or 1640. Positive controls (Doxorubicin (DOX) and Curcumin) and BAPs were initially dissolved in dimethyl sulphoxide (DMSO). Experimental concentration of DMSO was always 0.1% (v/v). The concentrations of BAPs and positive controls were 50, 20, 10, 5, 2.5, 1, 0.5, 0.1, 0.05, and 0.01 μg/mL.
(§2) The cells (1 × 10^4 cells/well) were seeded in a 96-well plate and incubated for 24 h. Cells treated with serial concentrations of drugs were incubated for another 24 h. After the media removed, 20 μL of MTT (5 mg/mL) solution was added and incubated for 4 h at 37 °C. The MTT solution was removed and then 150 μL of DMSO was added. The optical density was measured with a multi-well plate reader (TECAN, Mӓnnedorf, Switzerland) at 570 nm. The results are expressed as a decrease in the cell viability (%) in comparison to untreated controls. The concentration of each compound was examined in triplicate, and the IC50 values are expressed in Table 1.

[2] = system: human colon cancer cells (HCT116); assay: Cytotoxicity, MTT assay, HCT116; details: for IC50: MTT, 24 h; for HCT116 SI (selectivity index): quotient of IC50 towards LO2 cells
Source text: as §1, §2

[3] = system: human lung carcinoma cells (A549); assay: Cytotoxicity, MTT assay, A549; details: for IC50: MTT, 24 h; for A549 SI (selectivity index): quotient of IC50 towards LO2 cells
Source text: as §1, §2

[4] = system: human gastric adenocarcinoma cells (SGC7901); assay: Cytotoxicity, MTT assay, SGC7901; details: for IC50: MTT, 24 h; for SGC7901 SI (selectivity index): quotient of IC50 towards LO2 cells
Source text: as §1, §2

[5] = system: human liver hepatocellular carcinoma cell line (HepG2); assay: Cytotoxicity, MTT assay, HepG2; details: for IC50: MTT, 24 h; for HepG2 SI (selectivity index): quotient of IC50 towards LO2 cells
Source text: as §1, §2

[6] = system: human cervical carcinoma cells (HeLa); assay: Cytotoxicity, MTT assay, HeLa; details: for IC50: MTT, 24 h; for HeLa SI (selectivity index): quotient of IC50 towards LO2 cells
Source text: as §1, §2

[7] = system: human acute mononuclear granulocyte leukaemia (THP-1); assay: Cytotoxicity, MTT assay, THP-1; details: for IC50: MTT, 24 h; for THP-1 SI (selectivity index): quotient of IC50 towards LO2 cells
Source text: as §1, §2

[8] = system: human normal hepatic cell line (LO2); assay: Toxicity to normal cells, MTT assay, LO2; details: 24 h
Source text: as §1, §2

[9] = system: TNF-α production in LPS-stimulated RAW264.7 cells; assay: TNF-α production in LPS-stimulated RAW264.7 cells, ELISA
Method: The anti-inflammatory activities of BAPs were evaluated by ELISA. After pretreated with 30 μM of positive drug pyrrolidinedithiocarbamate (PDTC) or 6 μM of BAPs for 2 h, cells were treated with LPS (1.0 μg/mL) for 22 h. The culture media were collected and centrifuged for detecting the expression levels of TNF-α by an ELISA kit (eBioScience, San Diego, CA).
TNF-α is a common pro-inflammatory factors that can be produced by LPS-stimulated RAW264.7 macrophage[14]^,[24]. In order to evaluate the anti-inflammatory activity of BAPs, the effect of BAPs on TNF-α production in LPS-stimulated RAW264.7 cells was detected by ELISA. […] Only 92 presented slightly lower expression of TNF-α secretion (about 57%).

[10] = BAPs 6.0 μM, PDTC 30 μM, LPS 1.0 μg/mL

Row | SMILES | IC50 [1] | MCF-7 SI (selectivity index) [1] | IC50 [2] | HCT116 SI (selectivity index) [2] | IC50 [3] | A549 SI (selectivity index) [3] | IC50 [4] | SGC7901 SI (selectivity index) [4] | IC50 [5] | HepG2 SI (selectivity index) [5] | IC50 [6] | HeLa SI (selectivity index) [6] | IC50 [7] | THP-1 SI (selectivity index) [7] | IC50 [8] | TNF-α secretion [9, 10] | further results
1 | CN1CC(=Cc2cccc(N=Cc3ccc(O)c(O)c3O)c2)C(=O)C(=Cc2ccccc2F)C1 [Compound 100] | 7.7 ± 0.2 µM | 2.6 | 11.9 ± 0.1 µM | 1.7 | 1.9 ± 0.2 µM | 10.4 | 3.6 ± 0.1 µM | 5.5 | 8.8 ± 0.4 µM | 2.3 | 11.9 ± 0.2 µM | 1.7 | 7.7 ± 0.1 µM | 2.6 | 19.8 ± 0.3 µM | 45% | –
2 | CN1C/C(=C\c2cccc(N)c2)C(=O)/C(=C/c2ccccc2F)C1 [Compound 92, (3E,5E)-3-(3-aminobenzylidene)-5-(2-fluorobenzylidene)-1-methylpiperidin-4-one] | – | 6.8 | – | – | – | 8.6 | – | 6.8 | – | – | – | – | – | – | – | – | IC50 ([1]; Homo sapiens, MCF7): 2.8 ± 0.3 µM; IC50 ([2]; Homo sapiens, HCT-116): 3.1 ± 0.3 µM; IC50 ([3]; Homo sapiens, A549, 24 h): 2.2 ± 0.1 µM; IC50 ([4]; Homo sapiens, SGC-7901): 2.8 ± 0.2 µM; IC50 ([5]; Homo sapiens, HepG2, 24 h): 1.1 ± 0.1 µM; IC50 ([6]; Homo sapiens, HeLa): 2.5 ± 0.2 µM; IC50 ([7]; Homo sapiens, THP-1, 24 h): 1.2 ± 0.2 µM; IC50 ([8]; Homo sapiens): 18.9 ± 0.7 µM; TNF-α secretion (percent of LPS control) ([9]; 6.0 μM, 2 h pretreatment, LPS 1.0 μg/mL 22 h, ELISA): about 57%
3 | COc1cc(Br)c(O)c(C=Nc2cccc(C=C3CN(C)CC(=Cc4ccccc4F)C3=O)c2)c1 [Compound 102] | 15.5 ± 1.2 µM | 1.0 | 18.1 ± 1.9 µM | 0.8 | 13.4 ± 0.7 µM | 1.1 | 7 ± 0.4 µM | 2.1 | 5.9 ± 0.1 µM | 2.5 | 9.1 ± 0.2 µM | 1.6 | 5 ± 0.2 µM | 3.0 | 14.8 ± 0.1 µM | – | –
4 | CN1CC(=Cc2cccc(N=Cc3cc([N+](=O)[O-])ccc3F)c2)C(=O)C(=Cc2ccccc2F)C1 [Compound 97] | 10.7 ± 0.1 µM | 1.1 | 11.7 ± 0.2 µM | 1.0 | 5.7 ± 0.4 µM | 2.1 | 3.4 ± 0.8 µM | 3.5 | 4.2 ± 0.5 µM | 2.8 | 5.1 ± 1.2 µM | 2.3 | 8.1 ± 0.4 µM | 1.5 | 11.8 ± 0.4 µM | 45% | –
5 | CN1CC(=Cc2cccc(N=Cc3ccc(O)cc3O)c2)C(=O)C(=Cc2ccccc2F)C1 [Compound 98] | 10.3 ± 0.7 µM | 1.7 | 11.4 ± 0.7 µM | 1.5 | 3.2 ± 0.7 µM | 5.5 | 10.9 ± 0.3 µM | 1.6 | 7.5 ± 0.1 µM | 2.3 | 6.2 ± 0.1 µM | 2.8 | 5.1 ± 0.2 µM | 3.5 | 17.6 ± 0.2 µM | – | –
6 | CN1CC(=Cc2cccc(N=Cc3cc(F)ccc3O)c2)C(=O)C(=Cc2ccccc2F)C1 [Compound 93] | 3.8 ± 0.9 µM | 4.0 | 2.5 ± 1.8 µM | 6.0 | 3.7 ± 0.1 µM | 4.1 | 2.8 ± 0.5 µM | 5.4 | 2.2 ± 0.2 µM | 6.9 | 3 ± 0.1 µM | 5.0 | 2.4 ± 0.5 µM | 6.3 | 15.1 ± 0.7 µM | 45% | Inhibition of TNF-α secretion compared with PDTC (in words) [9, 10]: superior to PDTC group
7 | COc1cc(/C=C/C(=O)CC(=O)/C=C/c2ccc(O)c(OC)c2)ccc1O [Curcumin, reference compound] | – | 1.4 | – | 1.6 | – | 1.2 | – | 1.2 | – | 1.4 | – | 1.5 | – | 1.4 | – | – | IC50 ([1]; Homo sapiens, MCF7): 20.5 ± 0.2 µM; IC50 ([2]; Homo sapiens, HCT-116): 17.2 ± 0.3 µM; IC50 ([3]; Homo sapiens, A549, 24 h): 22.7 ± 1 µM; IC50 ([4]; Homo sapiens, SGC-7901): 22.8 ± 0.6 µM; IC50 ([5]; Homo sapiens, HepG2, 24 h): 20.7 ± 0.1 µM; IC50 ([6]; Homo sapiens, HeLa): 19.4 ± 0.6 µM; IC50 ([7]; Homo sapiens, THP-1, 24 h): 20.8 ± 0.6 µM; IC50 ([8]; Homo sapiens): 28.3 ± 1.2 µM
8 | CN1C/C(=C\c2cccc([N+](=O)[O-])c2)C(=O)/C(=C/c2ccc(F)cc2Br)C1 [Compound 87] | 11.6 ± 0.3 µM | 1.2 | 7.7 ± 0.4 µM | 1.8 | 4.3 ± 0.3 µM | 3.2 | 4.7 ± 0.3 µM | 2.9 | 5.4 ± 0.5 µM | 2.5 | 9.4 ± 0.5 µM | 1.5 | 6.6 ± 0.1 µM | 2.1 | 13.7 ± 0.5 µM | – | –
9 | COc1ccccc1/C=C1\CN(C)C/C(=C\c2cc(OC)c(OC)c(OC)c2)C1=O [Compound 89] | 9.7 ± 0.4 µM | 1.4 | 5.6 ± 0.1 µM | 2.4 | 4.9 ± 0.1 µM | 2.8 | 3.3 ± 0.3 µM | 4.1 | 4.3 ± 0.1 µM | 3.2 | 5.3 ± 0.4 µM | 2.6 | 7.9 ± 0.3 µM | 1.7 | 13.6 ± 0.1 µM | – | –
